# Measurements from patent publication US11266170B2, “Sweetener and flavor compositions, methods of making and methods of use thereof” (EPC Natural Products Co., Ltd., priority 2018, dated 2022).
# Residues, ends and D or L forms follow the SMILES beside them.
# Tested on: not given
# Assay: not given
# Conditions: at threshold concentrations; cited from earlier work
row,Molecule,times sweeter than sugar at threshold concentrations
1,"COc1ccc(CCC(=O)c2c(O)cc(O[C@@H]3O[C@H](CO)[C@@H](O)[C@H](O)[C@H]3O[C@@H]3O[C@@H](C)[C@H](O)[C@@H](O)[C@H]3O)cc2O)cc1O [NHDC, Neohesperidin dihydrochalcone]",1500-1800 times

# Same assay, conditions: compared to sucrose; cited from earlier work
Molecule,Sweetness by food energy,Sweetness by weight
Isomalt,0.9-1.3,0.45-0.65
"Brazzein (QDKCKKVYENYPVSKCQLANQCNYDCKLDKHARSGECFYDEKRNLQCICDYCEY; UniProt P56552 1-54, looked up) [Protein]",–,500-2000
OC[C@H]1O[C@H](OC[C@H]2OC(O)(CO)[C@@H](O)[C@@H]2O)[C@H](O)[C@@H](O)[C@@H]1O (stereo partly drawn) [Isomaltulose],–,0.5
Maltodextrin,–,0.15
N[C@@H](C[C@@](O)(Cc1c[nH]c2ccccc12)C(=O)O)C(=O)O [Monatin],–,"3,000"
Curculin,–,430-2070
OC[C@@H](O)[C@@H](O)[C@H](O)[C@H](O)CO [Mannitol],1.2,0.5
Monellin,–,"800-2,000"
CC1(C)[C@@H](O[C@H]2O[C@H](C(=O)O)[C@@H](O)[C@H](O)[C@H]2O[C@@H]2O[C@H](C(=O)O)[C@@H](O)[C@H](O)[C@H]2O)CC[C@]2(C)[C@H]3C(=O)C=C4[C@@H]5C[C@@](C)(C(=O)O)CC[C@]5(C)CC[C@@]4(C)[C@]3(C)CC[C@@H]12 [Glycyrrhizin],–,30-50
OC[C@@H](O)[C@@H](O)[C@H](O)[C@@H](O)CO [Sorbitol],0.9,0.6
OC[C@@H](O)[C@@H](O[C@@H]1O[C@H](CO)[C@H](O)[C@H](O)[C@H]1O)[C@H](O)[C@@H](O)CO [Lactitol],0.8,0.4
O=C(CO)[C@H](O)[C@H](O)[C@H](O)CO [Psicose],–,0.7
Inulin,–,0.1
Polydextrose,–,0.1
O=C(CO)[C@@H](O)[C@@H](O)[C@H](O)CO [Tagatose],2.4,0.92
OCC(O)CO [Glycerol],0.55,0.6
Pentadin,–,500
OC[C@@H](O)[C@@H](O[C@H]1O[C@H](CO)[C@@H](O)[C@H](O)[C@H]1O)[C@H](O)[C@@H](O)CO [Maltitol],1.7,0.75-0.9
C[C@@H]1O[C@@H](O[C@H]2O[C@@H]([C@@H](C)C3CC[C@@H]4[C@H]5CC(=O)[C@@H]6C[C@H](O[C@@H]7O[C@H](CO)[C@@H](O)[C@H](O)[C@H]7O[C@@H]7O[C@@H](C)[C@H](O)[C@@H](O)[C@H]7O)CC[C@]6(C)[C@@H]5CC[C@]34C)CC[C@@H]2C)[C@H](O)[C@H](O)[C@H]1O (stereo partly drawn) [Osladin],–,500
OC[C@@H](O)[C@@H](O)CO [Erythritol],14,0.6-0.7
Mabinlin,–,100

# Same assay, conditions: relative to sucrose / sugar; the sweetness depends on the tested concentration; cited from earlier work
row,Molecule,times sweeter than sucrose
1,COC(=O)[C@H](Cc1ccccc1)NC(=O)[C@@H](N)CC(=O)O [Aspartame] (H-Asp-Phe-OMe),160-200 times
2,O=S(=O)([O-])NC1CCCCC1.[Na+] [sodium cyclamate],about 30 times
3,OC[C@@H](O)[C@@H](O)[C@H](O)[C@H](O)CO [Mannitol],0.55-0.65 times
4,C=C1C[C@@]23CC[C@H]4[C@@](C)(CCC[C@@]4(C)C(=O)O[C@@H]4O[C@H](CO)[C@@H](O)[C@H](O)[C@H]4O)[C@@H]2CC[C@]1(O[C@@H]1O[C@H](CO)[C@@H](O)[C@H](O)[C@H]1O)C3 [Rubusoside],200 times
5,C[C@H](CC[C@@H](O[C@@H]1O[C@H](CO)[C@@H](O)[C@H](O)[C@H]1O[C@@H]1O[C@H](CO)[C@@H](O)[C@H](O)[C@H]1O)C(C)(C)O)[C@H]1CC[C@@]2(C)[C@H]3CC=C4[C@@H](CC[C@H](O[C@@H]5O[C@H](CO[C@@H]6O[C@H](CO)[C@@H](O)[C@H](O)[C@H]6O)[C@@H](O)[C@H](O)[C@H]5O)C4(C)C)[C@]3(C)[C@H](O)C[C@]12C [mogroside IV],126 times
6,OC[C@H]1O[C@H](O[C@]2(CCl)O[C@H](CCl)[C@@H](O)[C@@H]2O)[C@H](O)[C@@H](O)[C@H]1Cl [sucralose],about 600 times
7,C[C@H](CC[C@@H](O[C@@H]1O[C@H](CO[C@@H]2O[C@H](CO)[C@@H](O)[C@H](O)[C@H]2O)[C@@H](O)[C@H](O)[C@H]1O[C@@H]1O[C@H](CO)[C@@H](O)[C@H](O)[C@H]1O)C(C)(C)O)[C@H]1CC[C@@]2(C)[C@@H]3CC=C4[C@@H](CC[C@H](O[C@@H]5O[C@H](CO[C@@H]6O[C@H](CO)[C@@H](O)[C@H](O)[C@H]6O)[C@@H](O)[C@H](O)[C@H]5O)C4(C)C)[C@]3(C)[C@H](O)C[C@]12C [mogroside V],256-344 times

# Same assay, conditions: result in words; cited from earlier work
row,Molecule,Notes (taste)
1,"Miraculin (protein, UniProt P13087 30-220, looked up) Miraculin: DSAPNPVLDIDGEKLRTGTNYYIVPVLRDHGGGLTVSATTPNGTFVCPPRVVQTRKEVDHDRPLAFFPENPKEDVVRVSTDLNINFSAFMPCRWTSSTVWRLDKYDESTGQYFVTIGGVKGNPGPETISSWFKIEEFCGSGFYKLVFCPTVCGSCKVKCGDVGIYIDQKGRRRLALSDKPFAFEFNKTVYF",A protein that does not taste sweet by itself

# Same assay, conditions: weight-for-weight; cited from earlier work
row,Molecule,times sweeter than sugar weight-for-weight
1,"COc1ccc(CCC(=O)c2c(O)cc(O[C@@H]3O[C@H](CO)[C@@H](O)[C@H](O)[C@H]3O[C@@H]3O[C@@H](C)[C@H](O)[C@@H](O)[C@H]3O)cc2O)cc1O [NHDC, Neohesperidin dihydrochalcone]",about 340 times

# Tested on: 3 persons
# Assay: Sensory analysis of odor/smell, color and taste of reacted samples (Examples 55-62)
# Assay type: in vivo
# Conditions: Example 57, after reaction; 10 ml KH2PO4, pH 7.8, 2.5 h, 120 °C
# Description: The reaction partners were dissolved in water and then warmed glycerin (60° C.) was added. […]
# The taste test was performed as in Example 38.
# All samples were assessed at 22° C. after the Maillard reaction was stopped by placing the sealed vials in an ice bath. After 20 minutes in the ice bath the sealed vials were put in a water bath set to 22° C.
# The odor/smell was assessed independently by 3 persons; the final description was agreed after discussion. […] The taste was assessed independently by 3 persons either in the original samples or after appropriate dilution to achieve relevant concentrations of sugars and steviol-glycosides (i.e. 5-9% SE); the final description was agreed after discussion.
Molecule,Smell,Taste
O=C1O[C@@H]2[C@@H](O)[C@H](O)O[C@@H]2C1O (stereo partly drawn) [Glucuronolactone],Burnt sugar,Bitter
O=C[C@H](O)[C@@H](O)[C@H](O)[C@H](O)C(=O)O [Glucuronic Acid],burnt bread,Bitter

# Same assay, conditions: Example 57, before reaction; 10 ml KH2PO4, pH 7.8
Molecule,Smell,Taste
OC[C@H]1OC(O)[C@H](O)[C@@H](O)[C@@H]1O (stereo partly drawn) [9 mg Glucose],neutral,Sweet
N[C@@H](Cc1ccccc1)C(=O)O [16.5 mg Phe],neutral,No taste

# Same assay, conditions: Example 58, after reaction; 10 ml KH2PO4, pH 7.8, 2.5 h, 120 °C
row,Molecule,Smell
1,N[C@@H](Cc1ccccc1)C(=O)O [16.5 mg Phe],"Caramel, burnt"

# Same assay, conditions: Example 58, after reaction; after dilution 1:20
row,Molecule,Taste
1,N[C@@H](Cc1ccccc1)C(=O)O [16.5 mg Phe],Sweet

# Same assay, conditions: Example 58, before reaction; 10 ml KH2PO4, pH 7.8
row,Molecule,Smell
1,N[C@@H](Cc1ccccc1)C(=O)O [16.5 mg Phe],Neutral

# Same assay, conditions: Example 58, before reaction; after dilution 1:20
row,Molecule,Taste
1,N[C@@H](Cc1ccccc1)C(=O)O [16.5 mg Phe],No taste

# Same assay, conditions: negative controls (no carbohydrate source); 10 ml glycerin/water 9:1, 100 °C, 40 minutes
Molecule,Taste,Smell
O=C(O)[C@@H]1CCCN1 [11.5 mg Pro],Slightly sweet,–
CSCC[C@H](N)C(=O)O [14.9 mg Met],Slightly sweet,Sulfuric
C[C@@H](O)[C@H](N)C(=O)O [11.91 mg Thr],Slightly sweet,"Vanilla, butter"
N[C@@H](CO)C(=O)O [10.5 mg Ser],Slightly sweet,Lotus flower
N[C@@H](Cc1ccccc1)C(=O)O [16.5 mg Phe],Slightly sweet,"Bloomy, caramel"
C[C@H](N)C(=O)O [8.91 mg Ala],Slightly sweet,"Neutral, slightly Agar"
CC[C@H](C)[C@H](N)C(=O)O [13.11 mg Ile],Slightly sweet,Coffee
N[C@@H](Cc1ccc(O)cc1)C(=O)O [18.1 mg Tyr],Slightly sweet,neutral
N[C@@H](CS)C(=O)O [12.1 mg Cys],Slightly sweet,Unpleasant (sulfur)
N[C@@H](Cc1c[nH]c2ccccc12)C(=O)O [20.42 mg Try],Slightly sweet,Unpleasant (fecal)
NCCCC[C@H](N)C(=O)O [14.7 mg Lys],Slightly sweet,Popcorn
